The values below come from article PMC8760230, “Translational Development of a Zr-89-Labeled Inhibitor of Prostate-specific Membrane Antigen for PET Imaging in Prostate Cancer” (Molecular Imaging and Biology, 2021).

“Also recorded” adds a separate entry of the source.

One experiment has as its system LNCaP tumor xenograft. The experiment in a line: Small-animal PET in mice bearing an LNCaP tumor xenograft, with and without blocking by 2-PMPA. Conditions: 2-PMPA 23 mg/kg, n=3 per group.
In a further experiment the target is T1, PSMA (Homo sapiens, UniProt Q04609).
T1 construct: host or cells: LNCaP cells
Briefly: Equilibrium dissociation constant Kd / Bmax, saturation binding on PSMA-positive LNCaP cells. Conditions: 3 h incubation, 0.25-75 nM, nonspecific binding with 2-PMPA. As to the method: The equilibrium dissociation constant describing the interaction of the radiolabeled ligands with the PSMA binding sites was determined in PSMA-positive LNCaP cell lines (Cell Line Service, Eppelheim, Germany). LNCaP cells were seeded at a density of 10^6 cells/well on a 6-well plate (Corning, ME, USA) and incubated under 5% CO2 at 37 °C for 48 h with medium (minimum essential medium Eagle supplemented with 2 mM L-glutamine, 0.1 mM non-essential amino acids (NEAA), 1.0 mM sodium pyruvate, 10% fetal bovine serum, 100 U/ml penicillin, and 100 µg/ml streptomycin) (Lonza, Verviers, Belgium) in a humidified incubator (Thermo Heracell 150 CO2-Incubator, MA, USA). To determine the nonspecific binding, the medium was removed from selected wells, and 1 ml of a solution of 0.1 mM of 2-(phosphonomethyl)-pentanedioic acid (2-PMPA) in fresh medium was added. […] The plates were then incubated under 5% CO2, at 37 °C for 1 h. After that, the medium was removed and the cells incubated under the same incubation conditions for 3 h with different concentrations (0.25 nM, 2.5 nM, 5 nM, 10 nM, 25 nM, 50 nM, and 75 nM) of the radiotracer under investigation in 1 ml fresh medium.
After 3 h, the cells were washed three times with 1 ml PBS, and the cells were finally lysed by adding 1 ml of 1 M NaOH and incubating them for 10 min at room temperature. All samples were measured with a gamma counter (Nuklear Medizintechnik Dresden Isomed 100, Dresden, Germany) and were decay-corrected. The equilibrium dissociation constant (Kd) and the maximum density of receptors (Bmax) were calculated by non-linear regression using GraphPad Prism 8.0.2 (GraphPad Software, San Diego, USA).

T1 sequence (Q04609 whole entry): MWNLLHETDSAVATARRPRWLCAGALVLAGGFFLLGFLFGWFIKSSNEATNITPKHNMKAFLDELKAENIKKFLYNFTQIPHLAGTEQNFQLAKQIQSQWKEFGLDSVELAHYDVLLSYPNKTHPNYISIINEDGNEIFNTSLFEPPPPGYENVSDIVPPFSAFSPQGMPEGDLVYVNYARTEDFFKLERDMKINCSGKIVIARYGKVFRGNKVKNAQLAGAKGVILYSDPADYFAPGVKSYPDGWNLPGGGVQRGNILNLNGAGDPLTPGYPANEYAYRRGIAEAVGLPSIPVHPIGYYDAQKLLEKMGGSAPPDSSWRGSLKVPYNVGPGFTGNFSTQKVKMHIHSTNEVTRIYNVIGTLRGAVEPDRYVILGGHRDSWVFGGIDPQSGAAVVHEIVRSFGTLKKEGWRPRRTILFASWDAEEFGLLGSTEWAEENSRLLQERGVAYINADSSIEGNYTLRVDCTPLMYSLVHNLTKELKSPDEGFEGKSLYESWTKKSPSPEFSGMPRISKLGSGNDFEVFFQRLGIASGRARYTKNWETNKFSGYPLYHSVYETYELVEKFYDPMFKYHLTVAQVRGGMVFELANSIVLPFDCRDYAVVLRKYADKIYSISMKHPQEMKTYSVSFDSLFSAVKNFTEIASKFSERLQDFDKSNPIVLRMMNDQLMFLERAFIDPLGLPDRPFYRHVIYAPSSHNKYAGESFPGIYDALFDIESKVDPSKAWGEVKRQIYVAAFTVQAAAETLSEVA

Take `O=C(O)CCC(CP(=O)(O)O)C(=O)O` (stereo not shown) [2-PMPA, 2-(phosphonomethyl)-pentanedioic acid]: the “Effect of blocking on accumulation of [^89Zr]Zr-PSMA-DFO radioactivity in the liver” value in the experiment with LNCaP tumor xenograft (1 h, 21 h and 48 h) was “significantly increased; also recorded: radioactivity accumulated in the liver”. For the same molecule, in the experiment with LNCaP tumor xenograft (significant after 1 h), the “Effect of blocking on accumulation of [^89Zr]Zr-PSMA-DFO radioactivity in the kidneys” value is “significantly reduced” and the “Effect of blocking on tumor accumulation of [^89Zr]Zr-PSMA-DFO” value is on record as “strongly reduced; also recorded: markedly reduced”.

As a reminder, the Kd is the free concentration of one partner at which half of the binding sites on the other are occupied at equilibrium, for simple one-to-one binding. Low readings indicate higher affinity, high ones lower affinity. `CC(=O)N1CCCCCNC(=O)CCC(=O)N2CCCCCNC(=O)CCC(=O)N(CCCCCNC(=O)CCC(=O)NCC3CCC(C(=O)NC(Cc4ccc5ccccc5c4)C(=O)NCCCCC(NC(=O)NC(CCC(=O)O)C(=O)O)C(=O)O)CC3)[O][Zr+]([O]1)[O]2` (stereo not shown) [[^89Zr]Zr-PSMA-DFO, [^89Zr]Zr-N-sucDf-AMCHA-2Nal-EuK]: binding at PSMA was characterised by a dissociation constant (Kd) of 4.97 ± 0.57 nM.
